{
  "source": "patent US12723063B2",
  "about": "“GIPR-agonist compounds” (Eli Lilly and Company, priority 2019, dated 2026)",
  "key": {"human GcgR": {"molecular_target": "T1, human GcgR (Homo sapiens, UniProt P47871)", "T1 construct": "expressed in transfected cells; crude membranes", "T1 sequence (P47871 26-477)": "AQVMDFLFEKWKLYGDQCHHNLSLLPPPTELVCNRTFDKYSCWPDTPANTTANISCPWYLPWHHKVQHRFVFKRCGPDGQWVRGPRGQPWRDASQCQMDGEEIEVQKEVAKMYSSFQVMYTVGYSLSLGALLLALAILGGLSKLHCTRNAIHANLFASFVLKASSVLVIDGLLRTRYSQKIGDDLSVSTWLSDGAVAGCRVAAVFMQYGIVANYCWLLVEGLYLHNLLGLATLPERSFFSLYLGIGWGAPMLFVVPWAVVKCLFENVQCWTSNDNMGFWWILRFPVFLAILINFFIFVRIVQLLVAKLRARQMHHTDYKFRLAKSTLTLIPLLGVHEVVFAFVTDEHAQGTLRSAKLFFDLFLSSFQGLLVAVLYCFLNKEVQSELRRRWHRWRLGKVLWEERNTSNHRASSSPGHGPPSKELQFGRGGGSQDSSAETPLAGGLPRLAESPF", "assay": "[125I]-Glucagon binding, SPA with WGA beads, 0.1% bacitracin", "settings": "geometric mean, read-out: hGcgR Ki", "experimental": "Stably transfected cell lines are prepared by subcloning receptor cDNA into a pcDNA3 expression plasmid and transfected into human embryonic kidney (HEK) 293 (hGcgR and hGLP-1R) or Chinese Hamster Ovary (CHO) (hGIPR) cells followed by selection with Geneticin (hGLP-1R and hGIPR) or hygromycin B (hGcgR).\nTwo methods are used for the preparation of crude cell membranes.\nMethod 1: Frozen cell pellets are lysed on ice in hypotonic buffer containing 50 mM Tris HCl, pH 7.5, and Roche Complete™ Protease Inhibitors with EDTA. The cell suspension is disrupted using a glass Potter-Elvehjem homogenizer fitted with a Teflon® pestle for 25 strokes. The homogenate is centrifuged at 4° C. at 1100× g for 10 minutes. The supernatant is collected and stored on ice while the pellets are resuspended in homogenization buffer and rehomogenized as described above. The homogenate is centrifuged at 1100× g for 10 minutes. The second supernatant is combined with the first supernatant and centrifuged at 35000× g for 1 hour at 4° C. The resulting membrane pellet is resuspended in homogenization buffer containing protease inhibitors at approximately 1 to 3 mg/mL, quick frozen in liquid nitrogen and stored as aliquots in a −80° C. freezer until use.\nMethod 2: Frozen cell pellets are lysed on ice in hypotonic buffer containing 50 mM Tris HCl, pH 7.5, 1 mM MgCl2, Roche Complete™ EDTA-free Protease Inhibitors and 25 units/mL DNAse I (Invitrogen). The cell suspension is disrupted using a glass Potter-Elvehjem homogenizer fitted with a Teflon® pestle for 20 to 25 strokes. The homogenate is centrifuged at 4° C. at 1800× g for 15 minutes. The supernatant is collected and stored on ice while the pellets are resuspended in homogenization buffer (without DNAse I) and rehomogenized as described above. The homogenate is centrifuged at 1800× g for 15 minutes. The second supernatant is combined with the first supernatant and centrifuged an additional time at 1800× g for 15 minutes. The overall supernatant is then centrifuged at 25000× g for 30 minutes at 4° C. The resulting membrane pellet is resuspended in homogenization buffer (without DNAse I) containing protease inhibitors at approximately 1 to 3 mg/mL and stored as aliquots in a −80° C. freezer until use.\nThe human Geg receptor binding assays are performed using a Scintillation Proximity Assay (SPA) format with wheat germ agglutinin (WGA) beads (Perkin Elmer). The binding buffer contains 25 mM 4-(2-hydroxyethyl)-1-piperazineethanesulfonic acid (HEPES), pH 7.4, 2.5 mM CaCl2), 1 mM MgCl2, 0.1% (w/v) bacitracin (Research Products), 0.003% (w/v) Polyoxyethylenesorbitan monolaurate (TWEEN®-20), and Roche Complete™ Protease Inhibitors without EDTA. Peptides and Gcg are thawed and 3-fold serially diluted in 100% DMSO (10 point concentration response curves). Next, 5 μL serially diluted compound or DMSO is transferred into Corning® 3632 clear bottom assay plates containing 45 μL assay binding buffer or unlabeled Gcg control (non-specific binding or NSB, at 1 μM final). […] Plates are sealed and mixed on a plate shaker (setting 6) for 1 minute and read with a PerkinElmer Trilux MicroBeta® scintillation counter after 12 hours of incubation/settling time at room temperature.\nData are analyzed using four-parameter (curve maximum, curve minimum, IC50, Hill slope) nonlinear regression routines (Genedata Screener, version 12.0.4, Genedata AG, Basal, Switzerland). […] Values for Ki are reported as the geometric mean, with error expressed as the standard error of the mean (SEM) and n is equal to the number of independent replicates (determined in assays performed on different days). […] SEM is only calculated when […] or greater. Means are expressed as geometric means with the standard error of the mean (SEM) and the number of replicates (n) indicated in parentheses."}, "[1]": {"molecular_target": "T2, human GLP-1 receptor (GLP-1R) (Homo sapiens, UniProt P43220)", "T2 construct": "expressed in transfected cells; host or cells: HEK293", "T2 sequence (P43220 24-463)": "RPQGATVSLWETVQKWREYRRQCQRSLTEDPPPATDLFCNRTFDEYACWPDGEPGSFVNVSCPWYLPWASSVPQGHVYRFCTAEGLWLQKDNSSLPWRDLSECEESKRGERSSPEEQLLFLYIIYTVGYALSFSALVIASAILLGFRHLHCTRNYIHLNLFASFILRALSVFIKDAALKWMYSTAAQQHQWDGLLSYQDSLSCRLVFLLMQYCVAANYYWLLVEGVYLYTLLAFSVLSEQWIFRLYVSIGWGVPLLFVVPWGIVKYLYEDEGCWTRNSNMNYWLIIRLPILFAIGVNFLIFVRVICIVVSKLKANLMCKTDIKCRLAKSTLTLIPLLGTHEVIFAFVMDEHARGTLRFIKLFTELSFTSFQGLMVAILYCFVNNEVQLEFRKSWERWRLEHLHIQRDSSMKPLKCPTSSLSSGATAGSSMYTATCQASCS", "assay": "cAMP functional assay (HTRF) in HEK293 cells in presence of 0.1% casein", "assay_type": "cell-based", "settings": "HEK293 cells expressing human GLP-1R, geometric mean, read-out: hGLP1R cAMP Rel EC50 nM (SEM, n)", "experimental": "(§1) Each receptor over-expressing cell line (20 μl) is treated with the test peptide in DMEM (Gibco Cat #31053) supplemented with 0.1% Casein (Sigma Cat #C4765), 250 μM IBMX, 1× GlutaMAX™ (Gibco Cat #35050), and 20 mM HEPES (HyClone Cat #SH30237.01) in a 20 μl assay volume. After incubating for 60 minutes at room temperature, the resulting increase in intracellular CAMP is quantitatively determined using the CisBio CAMP Dynamic 2 HTRF Assay Kit (62AM4PEJ). The Lysis buffer containing cAMP-d2 conjugate (20 μl) and the antibody anti-cAMP-Eu3+-Cryptate (20 μl) are then added to determine the cAMP level. After incubating 60 minutes at room temperature, HTRF signal is detected with an Envision 2104 plate reader (PerkinElmer). Fluorescent emission at 620 nm and at 665 nm is measured and the ratio between 620 nm and at 665 nm is calculated and then are converted to nM cAMP per well using a cAMP standard curve. Dose response curves of compounds are plotted as the percentage of stimulation normalized to minimum (buffer only) and maximum (maximum concentration of each control ligand) values and analyzed using a four parameter non-linear regression fit with a variable slope (Genedata Screener 13). EC50 is the concentration of compound causing half-maximal simulation in a dose response curve. A relative EC50 value is derived by non-linear regression analysis using the percent maximal response vs, the concentration of peptide added, fitted to a four-parameter logistic equation.\n(§2) Intracellular cAMP levels are determined by extrapolation using a standard curve. Dose response curves of compounds are plotted as the percentage of stimulation normalized to minimum (buffer only) and maximum (maximum concentration of each control ligand) values and analyzed using a four-parameter non-linear regression fit with a variable slope (Genedata Screener 13). EC50 is the concentration of compound causing half-maximal simulation in a dose response curve. Each relative EC50 value for the geometric mean calculation is determined from a curve fitting.\n(§3) Concentration response curves of compounds are plotted as the percentage of stimulation normalized to minimum (buffer only) and maximum (maximum concentration of each control ligand) values and analyzed using a four-parameter non-linear regression fit with a variable slope (Genedata Screener 13). EC50 is the concentration of compound causing half-maximal simulation in a dose response curve. […] The standard error of the mean is reported:\n(§4) [formula] • The log transform accounts for the EC50 values falling on a multiplicative, rather than an arithmetic scale.\n(§5) For illustration, as shown by Example 1, the peptide is tested in 8 runs of the hGIPR CAMP assay. […] Accordingly, each Example will use the geometric mean of those values to normalize the Example assay runs."}, "[2]": {"molecular_target": "T3, human glucagon receptor (GcgR) (Homo sapiens, UniProt P47871)", "T3 construct": "expressed in transfected cells; host or cells: HEK293", "T3 sequence (P47871 26-477)": "as the sequence (P47871 26-477) above", "assay": "cAMP functional assay (HTRF) in HEK293 cells in presence of 0.1% casein", "assay_type": "cell-based", "settings": "HEK293 cells expressing human GcgR, geometric mean, read-out: hGcgR cAMP Rel EC50 nM (SEM, n)", "experimental": "as §1, §2, §3, §4, §5"}},
  "note": "*1 amine or outer side, *2 acyl side, *3 side chain or, on linkers, in order; H or OH if unused. Where a SMILES comes first, the peptide text is derived from it. Side-chain parts run from the residue outwards. [ ]: non-standard residue; d: D form. The star is where a group is joined. C20 diacid = O=C(O)CCCCCCCCCCCCCCCCCCC(=O)*; γGlu = O=C(O)[C@H](CCC(=O)[*:2])N[*:1]; 4Pal = N[C@@H](Cc1ccncc1)C(=O)O; αMeL = CC(C)C[C@](C)(N)C(=O)O; AEEA = NCCOCCOCC(=O)O; Aib = CC(C)(N)C(=O)O",
  "data": [
    {"smiles": "CC[C@H](C)[C@H](NC(=O)[C@H](CO)NC(=O)[C@H](Cc1ccc(O)cc1)NC(=O)[C@H](CC(=O)O)NC(=O)[C@H](CO)NC(=O)[C@@H](NC(=O)[C@H](Cc1ccccc1)NC(=O)[C@@H](NC(=O)CNC(=O)[C@H](CCC(=O)O)NC(=O)[C@@H](C)NC(=O)[C@@H](N)Cc1ccc(O)cc1)[C@@H](C)O)[C@@H](C)CC)C(=O)N[C@@H](CC(C)C)C(=O)N[C@@H](CC(C)C)C(=O)N[C@@H](CC(=O)O)C(=O)N[C@@H](CCCCN)C(=O)N[C@@H](CCCCNC(=O)COCCOCCNC(=O)COCCOCCNC(=O)CC[C@H](NC(=O)CCCCCCCCCCCCCCCCCCC(=O)O)C(=O)O)C(=O)N[C@@H](Cc1c[nH]cn1)C(=O)N[C@@H](CCC(N)=O)C(=O)N[C@@H](CCC(N)=O)C(=O)N[C@@H](CC(=O)O)C(=O)N[C@@H](Cc1ccccc1)C(=O)N[C@H](C(=O)N[C@@H](CCC(=O)O)C(=O)N[C@@H](Cc1c[nH]c2ccccc12)C(=O)N[C@@H](CC(C)C)C(=O)N[C@@H](CC(C)C)C(=O)N[C@@H](C)C(=O)N[C@@H](CCC(N)=O)C(=O)NCC(=O)N1CCC[C@H]1C(=O)N[C@@H](CO)C(=O)N[C@@H](CO)C(=O)NCC(=O)N[C@@H](C)C(=O)N1CCC[C@H]1C(=O)N1CCC[C@H]1C(=O)N1CCC[C@H]1C(=O)N[C@@H](CO)C(N)=O)C(C)C", "note": "[Example 14] (H-Y[dA]EGTFISDYSILLDKK([AEEA-AEEA-γGlu-C20 diacid])HQQDFVEWLLAQGPSSGAPPPS-NH2)", "values": [
      {"measurement": "Ki", "setting": "human GcgR", "value": "> 230", "unit": "nM"},
      {"measurement": "EC50", "setting": "[1]", "value": "> 100", "unit": "nM"},
      {"measurement": "EC50", "setting": "[2]", "value": "> 5000", "unit": "nM"}
    ]},
    {"smiles": "CC[C@H](C)[C@H](NC(=O)[C@H](Cc1ccccc1)NC(=O)[C@@H](NC(=O)CNC(=O)[C@H](CCC(=O)O)NC(=O)C(C)(C)NC(=O)[C@@H](N)Cc1ccc(O)cc1)[C@@H](C)O)C(=O)N[C@@H](CO)C(=O)N[C@@H](CC(=O)O)C(=O)N[C@@H](Cc1ccc(O)cc1)C(=O)N[C@@H](CO)C(=O)N[C@H](C(=O)N[C@@](C)(CC(C)C)C(=O)N[C@@H](CC(C)C)C(=O)N[C@@H](CC(=O)O)C(=O)N[C@@H](CCCCN)C(=O)N[C@@H](CCCCNC(=O)COCCOCCNC(=O)COCCOCCNC(=O)CC[C@H](NC(=O)CCCCCCCCCCCCCCCCCCC(=O)O)C(=O)O)C(=O)N[C@@H](Cc1c[nH]cn1)C(=O)N[C@@H](CCC(N)=O)C(=O)NC(C)(C)C(=O)N[C@@H](CC(=O)O)C(=O)N[C@@H](Cc1ccccc1)C(=O)N[C@H](C(=O)N[C@@H](CCC(=O)O)C(=O)N[C@@H](Cc1ccncc1)C(=O)N[C@@H](CC(C)C)C(=O)N[C@@H](CC(C)C)C(=O)N[C@@H](CCC(=O)O)C(=O)N[C@@H](C)C(=O)NCC(=O)N1CCC[C@H]1C(=O)N[C@@H](CO)C(=O)N[C@@H](CO)C(=O)NCC(=O)N[C@@H](C)C(=O)N1CCC[C@H]1C(=O)N1CCC[C@H]1C(=O)N1CCC[C@H]1C(=O)N[C@@H](CO)C(N)=O)C(C)C)[C@@H](C)CC", "note": "[Example 3]", "values": [
      {"measurement": "Ki", "setting": "human GcgR", "value": 338, "unit": "nM"},
      {"measurement": "EC50", "setting": "[1]", "value": "> 5000", "unit": "nM"},
      {"measurement": "EC50", "setting": "[2]", "value": 1250, "unit": "nM"}
    ]},
    {"smiles": "CC[C@H](C)[C@H](NC(=O)[C@H](CCCCN)NC(=O)[C@H](CC(=O)O)NC(=O)[C@H](CC(C)C)NC(=O)[C@](C)(CC(C)C)NC(=O)[C@@H](NC(=O)[C@H](CO)NC(=O)[C@H](Cc1ccc(O)cc1)NC(=O)[C@H](CC(=O)O)NC(=O)[C@H](CO)NC(=O)[C@@H](NC(=O)[C@H](Cc1ccccc1)NC(=O)[C@@H](NC(=O)CNC(=O)[C@H](CCC(=O)O)NC(=O)C(C)(C)NC(=O)[C@@H](N)Cc1ccc(O)cc1)[C@@H](C)O)[C@@H](C)CC)[C@@H](C)CC)C(=O)N[C@@H](Cc1c[nH]cn1)C(=O)N[C@@H](CCC(N)=O)C(=O)NC(C)(C)C(=O)N[C@@H](CC(=O)O)C(=O)N[C@@H](Cc1ccccc1)C(=O)N[C@H](C(=O)N[C@@H](CCC(=O)O)C(=O)N[C@@H](Cc1ccncc1)C(=O)N[C@@H](CCCCNC(=O)COCCOCCNC(=O)COCCOCCNC(=O)CC[C@H](NC(=O)CCCCCCCCCCCCCCCCCCC(=O)O)C(=O)O)C(=O)N[C@@H](CC(C)C)C(=O)N[C@@H](CCC(=O)O)C(=O)NCC(=O)NCC(=O)N1CCC[C@H]1C(=O)N[C@@H](CO)C(=O)N[C@@H](CO)C(=O)NCC(=O)N[C@@H](C)C(=O)N1CCC[C@H]1C(=O)N1CCC[C@H]1C(=O)N1CCC[C@H]1C(=O)N[C@@H](CO)C(N)=O)C(C)C", "note": "[Example 109] (H-Y[Aib]EGTFISDYSI[αMeL]LDKIHQ[Aib]DFVE[4Pal]K([AEEA-AEEA-γGlu-C20 diacid])LEGGPSSGAPPPS-NH2)", "values": [
      {"measurement": "Ki", "setting": "human GcgR", "value": "> 960", "unit": "nM"},
      {"measurement": "EC50", "setting": "[1]", "value": "> 5000", "unit": "nM"},
      {"measurement": "EC50", "setting": "[2]", "value": "> 5000", "unit": "nM"}
    ]}
  ]
}
